# Read-outs that look alike come from different tables or passages of the source.
# System: patients with advanced metastatic cancer
# Excerpt: In this phase 1 study, dose escalation was followed by expansion cohorts of once-daily, oral M2698 in continuous 21-day cycles. Primary objectives were to determine the maximum tolerated dose (MTD), dose-limiting toxicities (DLTs), and recommended phase 2 dose (RP2D). Secondary objectives were to assess safety and tolerability, pharmacokinetics (PK, including food effect) and antitumor activity. Pharmacodynamic biomarker assessments were exploratory. Treatment was discontinued if there was disease progression, toxicity or consent withdrawal.
# In Part 1, M2698 monotherapy was investigated in a dose escalation with a food effect cohort. In Part 2, M2698 was investigated as monotherapy (expansion cohort) to further characterize safety, tolerability and pharmacokinetics, and assess antitumor activity in PAM + patients without confounding markers (exploratory).
# Dose escalation analysis included all patients who experienced a DLT and those who received ≥ 80% of planned M2698 doses in cycle 1 without experiencing a DLT. Safety analysis included all patients who received ≥ 1 dose of M2698. PK analysis included all patients who received ≥ 1 dose of M2698 and had measurable plasma concentrations. Dose proportionality was tested using the power model (linear regression approach on the log -transformed scale).
compound,measurement,setting,value
NC(=O)c1cccc2c(N[C@H](CN3CCC3)c3ccc(Cl)c(C(F)(F)F)c3)ncnc12 [M2698],M2698-related TEAE: Dysphagia,380 mg n=4,0
same,M2698-related TEAE: Energy increased,380 mg n=4,0
same,M2698-related TEAE: Erythema,380 mg n=4,0
same,M2698-related TEAE: Euphoric mood,380 mg n=4,0
same,M2698-related TEAE: Eye disorders,380 mg n=4,0
same,M2698-related TEAE: Fatigue,380 mg n=4,0
same,M2698-related TEAE: Gamma-glutamyltransferase increased,380 mg n=4,0
same,M2698-related TEAE: Gastrointestinal disorders,380 mg n=4,2
same,M2698-related TEAE: Gastrooesophageal reflux disease,380 mg n=4,0
same,M2698-related TEAE: General disorders and administration site conditions,380 mg n=4,0
same,M2698-related TEAE: Headache,380 mg n=4,0
same,M2698-related TEAE: Hyperhidrosis,380 mg n=4,0
same,M2698-related TEAE: Hypokalaemia,380 mg n=4,0
same,M2698-related TEAE: Hypomagnesaemia,380 mg n=4,0
same,M2698-related TEAE: Insomnia,380 mg n=4,0
same,M2698-related TEAE: Investigations,380 mg n=4,1
same,M2698-related TEAE: Lipase increased,380 mg n=4,0
same,M2698-related TEAE: Lymphopenia,380 mg n=4,0
same,M2698-related TEAE: Metabolism and nutrition disorders,380 mg n=4,0
same,M2698-related TEAE: Mucosal inflammation,380 mg n=4,0
same,M2698-related TEAE: Nausea,380 mg n=4,1
same,M2698-related TEAE: Nervous system disorders,380 mg n=4,1
same,M2698-related TEAE: Nightmare,380 mg n=4,0
same,M2698-related TEAE: Onychomadesis,380 mg n=4,0
same,M2698-related TEAE: Paranoia,380 mg n=4,0
same,M2698-related TEAE: Photosensitivity reaction,380 mg n=4,0
same,M2698-related TEAE: Posterior reversible encephalopathy syndrome,380 mg n=4,1
same,M2698-related TEAE: Pruritus generalised,380 mg n=4,0
same,M2698-related TEAE: Psychiatric disorders,380 mg n=4,0
same,M2698-related TEAE: Rash,380 mg n=4,0
same,M2698-related TEAE: Rash maculo-papular,380 mg n=4,0
same,M2698-related TEAE: Skin and subcutaneous tissue disorders,380 mg n=4,0
same,M2698-related TEAE: Subjects with at least one event,380 mg n=4,3
same,M2698-related TEAE: Transaminases increased,380 mg n=4,0
same,M2698-related TEAE: Tremor,380 mg n=4,0
same,M2698-related TEAE: Vision blurred,380 mg n=4,0
same,M2698-related TEAE: Vomiting,380 mg n=4,1
same,M2698-related TEAE: White blood cell count decreased,380 mg n=4,0
same,M2698-related TEAE: Abnormal dreams,Overall N=62,6 (9.7) n (%)
same,M2698-related TEAE: Affect lability,Overall N=62,1 (1.6) n (%)
same,M2698-related TEAE: Alanine aminotransferase increased,Overall N=62,1 (1.6) n (%)
same,M2698-related TEAE: Amylase increased,Overall N=62,1 (1.6) n (%)
same,M2698-related TEAE: Anaemia,Overall N=62,2 (3.2) n (%)
same,M2698-related TEAE: Angina pectoris,Overall N=62,1 (1.6) n (%)
same,M2698-related TEAE: Anxiety,Overall N=62,1 (1.6) n (%)
same,M2698-related TEAE: Aphasia,Overall N=62,1 (1.6) n (%)
same,M2698-related TEAE: Ataxia,Overall N=62,1 (1.6) n (%)
same,M2698-related TEAE: Blood and lymphatic system disorders,Overall N=62,3 (4.8) n (%)
same,M2698-related TEAE: Blood creatine phosphokinase increased,Overall N=62,2 (3.2) n (%)
same,M2698-related TEAE: Blood creatinine increased,Overall N=62,2 (3.2) n (%)
same,M2698-related TEAE: Cardiac disorders,Overall N=62,1 (1.6) n (%)
same,M2698-related TEAE: Cognitive disorder,Overall N=62,1 (1.6) n (%)
same,M2698-related TEAE: Constipation,Overall N=62,3 (4.8) n (%)
same,M2698-related TEAE: Decreased appetite,Overall N=62,2 (3.2) n (%)
same,M2698-related TEAE: Delusion,Overall N=62,1 (1.6) n (%)
same,M2698-related TEAE: Depression,Overall N=62,2 (3.2) n (%)
same,M2698-related TEAE: Diarrhoea,Overall N=62,7 (11.3) n (%)
same,M2698-related TEAE: Diarrhoea haemorrhagic,Overall N=62,1 (1.6) n (%)
same,M2698-related TEAE: Dizziness,Overall N=62,1 (1.6) n (%)
same,M2698-related TEAE: Dry eye,Overall N=62,1 (1.6) n (%)
same,M2698-related TEAE: Dry mouth,Overall N=62,1 (1.6) n (%)
same,M2698-related TEAE: Dysgeusia,Overall N=62,2 (3.2) n (%)
same,M2698-related TEAE: Dyspepsia,Overall N=62,1 (1.6) n (%)
same,M2698-related TEAE: Dysphagia,Overall N=62,1 (1.6) n (%)
same,M2698-related TEAE: Energy increased,Overall N=62,1 (1.6) n (%)
same,M2698-related TEAE: Erythema,Overall N=62,1 (1.6) n (%)
same,M2698-related TEAE: Euphoric mood,Overall N=62,1 (1.6) n (%)
same,M2698-related TEAE: Eye disorders,Overall N=62,2 (3.2) n (%)
same,M2698-related TEAE: Fatigue,Overall N=62,4 (6.5) n (%)
same,M2698-related TEAE: Gamma-glutamyltransferase increased,Overall N=62,2 (3.2) n (%)
same,M2698-related TEAE: Gastrointestinal disorders,Overall N=62,18 (29.0) n (%)
same,M2698-related TEAE: Gastrooesophageal reflux disease,Overall N=62,1 (1.6) n (%)
same,M2698-related TEAE: General disorders and administration site conditions,Overall N=62,6 (9.7) n (%)
same,M2698-related TEAE: Headache,Overall N=62,1 (1.6) n (%)
same,M2698-related TEAE: Hyperhidrosis,Overall N=62,1 (1.6) n (%)
same,M2698-related TEAE: Hypokalaemia,Overall N=62,2 (3.2) n (%)
same,M2698-related TEAE: Hypomagnesaemia,Overall N=62,1 (1.6) n (%)
same,M2698-related TEAE: Insomnia,Overall N=62,2 (3.2) n (%)
same,M2698-related TEAE: Investigations,Overall N=62,9 (14.5) n (%)
same,M2698-related TEAE: Lipase increased,Overall N=62,1 (1.6) n (%)
same,M2698-related TEAE: Lymphopenia,Overall N=62,1 (1.6) n (%)
same,M2698-related TEAE: Metabolism and nutrition disorders,Overall N=62,4 (6.5) n (%)
same,M2698-related TEAE: Mucosal inflammation,Overall N=62,1 (1.6) n (%)
same,M2698-related TEAE: Nausea,Overall N=62,12 (19.4) n (%)
same,M2698-related TEAE: Nervous system disorders,Overall N=62,10 (16.1) n (%)
same,M2698-related TEAE: Nightmare,Overall N=62,1 (1.6) n (%)
same,M2698-related TEAE: Onychomadesis,Overall N=62,1 (1.6) n (%)
same,M2698-related TEAE: Paranoia,Overall N=62,1 (1.6) n (%)
same,M2698-related TEAE: Photosensitivity reaction,Overall N=62,1 (1.6) n (%)
same,M2698-related TEAE: Posterior reversible encephalopathy syndrome,Overall N=62,1 (1.6) n (%)
same,M2698-related TEAE: Pruritus generalised,Overall N=62,1 (1.6) n (%)
same,M2698-related TEAE: Psychiatric disorders,Overall N=62,10 (16.1) n (%)
same,M2698-related TEAE: Rash,Overall N=62,1 (1.6) n (%)
same,M2698-related TEAE: Rash maculo-papular,Overall N=62,2 (3.2) n (%)
same,M2698-related TEAE: Skin and subcutaneous tissue disorders,Overall N=62,8 (12.9) n (%)
same,M2698-related TEAE: Subjects with at least one event,Overall N=62,34 (54.8) n (%)
same,M2698-related TEAE: Transaminases increased,Overall N=62,1 (1.6) n (%)
same,M2698-related TEAE: Tremor,Overall N=62,4 (6.5) n (%)
same,M2698-related TEAE: Vision blurred,Overall N=62,1 (1.6) n (%)

# From paper PMC8371902, “Phase 1 study of M2698, a p70S6K/AKT dual inhibitor, in patients with advanced cancer” (Journal of Hematology & Oncology, 2021)
